In US20100029710A1, “COMPOUNDS HAVING BOTH ANGIOTENSIN II RECEPTOR ANTAGONISM AND PPARy ACTIVATING ACTIVITIES” (Pfizer Products Inc., priority 2006, published 2010):

What was measured:
[1] = biological target: T1, Human recombinant AT1 receptor (Homo sapiens, UniProt P30556); experiment: AT1 receptor radioligand binding (flashplate); details: 125I Sar1,Ile8-Angiotensin II radioligand
T1 construct: purchased
T1 sequence (P30556 1-359): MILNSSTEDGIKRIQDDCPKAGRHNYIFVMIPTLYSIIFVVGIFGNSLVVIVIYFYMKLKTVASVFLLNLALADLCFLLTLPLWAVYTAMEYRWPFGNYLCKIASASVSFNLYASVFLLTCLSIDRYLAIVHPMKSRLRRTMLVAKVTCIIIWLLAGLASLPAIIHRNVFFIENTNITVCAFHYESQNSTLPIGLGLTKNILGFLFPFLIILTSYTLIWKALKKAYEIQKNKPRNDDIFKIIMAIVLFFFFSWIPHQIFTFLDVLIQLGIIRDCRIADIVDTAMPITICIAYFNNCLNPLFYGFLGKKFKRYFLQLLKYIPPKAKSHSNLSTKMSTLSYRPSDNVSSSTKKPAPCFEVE
Method: Angiotensin II receptor antagonist activity may be determined using commercially available flashplates coated with the AT1 or AT2 receptor which provide a rapid and high throughput means to evaluate compounds compared to traditional filtration based assays (Regina M. Van Der Hee et al., Journal of Biomolecular Screening 10(2); 2005; 118-126).
AT1 receptor affinity was determined in a radioligand binding format using commercially available flashplate technology. Human recombinant AT1 receptor were coated on the wells of a 96 well flashplate and test compounds were diluted and added to wells at a final concentration range of 50 μM to 1 μM. Total binding was determined in the absence of compound and non-specific binding in the presence of 10 μM cold Angiotensin II. ^125I labeled Sar^1, Ile^8-Angiotensin II was added to all wells at Kd concentration and left for 2 hours at room temperature to equilibrate. Plates were read on a TopCount (Perkin Elmer) and concentration-response curves constructed using commercial curve fitting software. The Ki was determined via interpolation and the use of the Cheng-Prussof equation.

[2] = biological target: T2, human PPARγ LBD bound to Gal4 DBD (Homo sapiens, UniProt P37231); experiment: PPARγ transfection luciferase reporter assay in HepG2 cells; type: cell-based; details: for Emax: HepG2, 24 h, compared to full agonist response (standard TZD full agonist), read-out: PPARγ % activation; for EC50: HepG2, 24 hours exposure
T2 construct: expressed in transfected cells; host or cells: HepG2
T2 sequence (P37231 238-503 limits assumed): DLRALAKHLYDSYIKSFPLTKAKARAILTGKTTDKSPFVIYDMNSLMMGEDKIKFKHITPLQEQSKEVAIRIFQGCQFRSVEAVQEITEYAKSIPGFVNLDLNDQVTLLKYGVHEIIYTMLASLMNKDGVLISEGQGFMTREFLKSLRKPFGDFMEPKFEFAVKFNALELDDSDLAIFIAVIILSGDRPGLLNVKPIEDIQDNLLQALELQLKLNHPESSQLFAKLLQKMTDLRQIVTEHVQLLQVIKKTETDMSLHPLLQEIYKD
Method: PPARγ agonist activity may be determined by a cell line transiently transfected with PPARγ bound to a DNA binding domain that controls luciferase expression. The degree of receptor agonism is measured by the amount of luciferase activity after compound treatment. The ratio of treated cells over vehicle control cells provides a measure of fold activation and allows an EC50 (shown in tables I and II as […] EC50) and % activation to be calculated
A human hepatocellular carcinoma cell line (HepG2) was subcultured into dishes and transiently transfected with DNA to allow expression of human PPARγ LBD bound to Gal4 DBD. Luciferase reporter gene and β-galactosidase control genes were co-transfected to enable activity to be measured. After 24 hours, cells were exposed to compounds in the concentration range of 0.1 nM-100 μM and left for a further 24 hours. Luciferase activity is determined by luminometry and PPARγ activation is expressed as a ratio of luciferase activity to β-galactosidase activity to account for transfection efficiency. Potency is described by an EC50 defined as the concentration of compound producing receptor activation equivalent to 50% of the maximum for that compound (shown in Table I as transfection EC50). The maximum fold activation is a measure of efficacy and is expressed as a percentage of a reference full agonist run in the same assay. Efficacy is described by % activation of receptor relative to a standard thiazolidinedione (TZD) full agonist.

In the case of CCc1nc2c(C)cc(CC(C)O)nc2n1[C@H]1CCc2cc(-c3ccccc3-c3nnn[nH]3)ccc21 (mixture of isomers) [Example 15, 1-(3-((1S)-5-(2-(1H-tetrazol-5-yl)phenyl)-2,3-dihydro-1H-inden-1-yl)-2-ethyl-7-methyl-3H-imidazo[4,5-b]pyridin-5-yl)propan-2-ol], the IC50 [1] is reported as 1.7 nM, the Emax [2] is reported as 19% and the EC50 [2] is reported as 85 nM.
CCc1nc2c(C)cc([C@@H](O)c3ccccc3)nc2n1[C@H]1CCc2cc(-c3ccccc3-c3nnn[nH]3)ccc21 (single isomer, unassigned) [Example 8a] gave an IC50 [1] of 1.3 nM, an Emax [2] of 16% and an EC50 [2] of 60 nM.
Work on CCc1nc2c(C)cc(CC[C@@H](C)O)nc2n1[C@H]1CCc2cc(-c3ccccc3-c3nnn[nH]3)ccc21 (single isomer, unassigned) [Example 37] yielded an IC50 [1] of 0.5 nM, an Emax [2] of 24% and an EC50 [2] of 270 nM.
CCc1nc2c(C)cc(CC3CCCCC3O)nc2n1[C@H]1CCc2cc(-c3ccccc3-c3nnn[nH]3)ccc21 (single isomer, unassigned) [Example 64] was tested, and the IC50 [1] was 1.9 nM, the Emax [2] was 21% and the EC50 [2] was 95 nM.
With CCc1nc2c(C)cc(CC3CCCC3O)nc2n1[C@H]1CCc2cc(-c3ccccc3-c3nnn[nH]3)ccc21 (single isomer, unassigned) [Example 65] the IC50 [1] was 2.3 nM, the Emax [2] was 22% and the EC50 [2] was 245 nM.
CCc1nc2c(C)cc(Cc3ccccc3)nc2n1[C@H]1CCc2cc(-c3ccccc3-c3nnn[nH]3)ccc21 [Example 1, 3-((1S)-5-(2-(1H-tetrazol-5-yl)phenyl)-2,3-dihydro-1H-inden-1-yl)-5-benzyl-2-ethyl-7-methyl-3H-imidazo[4,5-b]pyridine] showed an IC50 [1] of 4.5 nM, an Emax [2] of 27% and an EC50 [2] of 90 nM.
CCc1nc2c(C)cc(Cc3ccccn3)nc2n1[C@H]1CCc2cc(-c3ccccc3-c3nnn[nH]3)ccc21 [Example 2, 3-((1S)-5-(2-(1H-tetrazol-5-yl)phenyl)-2,3-dihydro-1H-inden-1-yl)-2-ethyl-7-methyl-5-(pyridin-2-ylmethyl)-3H-imidazo[4,5-b]pyridine] was tested, and the IC50 [1] was 3.5 nM, the Emax [2] was 29% and the EC50 [2] was 105 nM.
Compound CCc1nc2c(C)cc(COC)nc2n1[C@H]1CCc2cc(-c3ccccc3-c3nnn[nH]3)ccc21 [Example 3, 3-((1S)-5-(2-(1H-tetrazol-5-yl)phenyl)-2,3-dihydro-1H-inden-1-yl)-2-ethyl-5-(methoxymethyl)-7-methyl-3H-imidazo[4,5-b]pyridine] has an IC50 [1] of 1.6 nM, an Emax [2] of 32% and an EC50 [2] of 665 nM.
CCc1nc2c(C)cc(COC(C)C)nc2n1[C@H]1CCc2cc(-c3ccccc3-c3nnn[nH]3)ccc21 [Example 4, 3-((1S)-5-(2-(1H-tetrazol-5-yl)phenyl)-2,3-dihydro-1H-inden-1-yl)-2-ethyl-5-(isopropoxymethyl)-7-methyl-3H-imidazo[4,5-b]pyridine] showed an IC50 [1] of 2.2 nM, an Emax [2] of 32% and an EC50 [2] of 295 nM.
CCc1nc2c(C)cc(COC(C)(C)C)nc2n1[C@H]1CCc2cc(-c3ccccc3-c3nnn[nH]3)ccc21 [Example 5, 3-((1S)-5-(2-(1H-tetrazol-5-yl)phenyl)-2,3-dihydro-1H-inden-1-yl)-5-(tert-butoxymethyl)-2-ethyl-7-methyl-3H-imidazo[4,5-b]pyridine] was tested, and the IC50 [1] was 2.9 nM, the Emax [2] was 48% and the EC50 [2] was 290 nM.
Work on CCc1nc2c(C)cc(Cn3cccn3)nc2n1[C@H]1CCc2cc(-c3ccccc3-c3nnn[nH]3)ccc21 [Example 6, 5-((1H-pyrazol-1-yl)methyl)-3-((1S)-5-(2-(1H-tetrazol-5-yl)phenyl)-2,3-dihydro-1H-inden-1-yl)-2-ethyl-7-methyl-3H-imidazo[4,5-b]pyridine] yielded an IC50 [1] of 10 nM, an Emax [2] of 46% and an EC50 [2] of 275 nM.
In the case of CCc1nc2c(C)cc([C@H](O)c3ccccc3)nc2n1[C@H]1CCc2cc(-c3ccccc3-c3nnn[nH]3)ccc21 [Example 8b, (R)-(3-((1S)-5-(2-(1H-tetrazol-5-yl)phenyl)-2,3-dihydro-1H-inden-1-yl)-2-ethyl-7-methyl-3H-imidazo[4,5-b]pyridin-5-yl)(phenyl)methanol], the IC50 [1] is reported as 1.5 nM, the Emax [2] is reported as 25% and the EC50 [2] is reported as 100 nM.
Compound C=CCc1cc(C)c2nc(CC)n([C@H]3CCc4cc(-c5ccccc5-c5nnn[nH]5)ccc43)c2n1 [Example 9, 3-((1S)-5-(2-(1H-tetrazol-5-yl)phenyl)-2,3-dihydro-1H-inden-1-yl)-5-allyl-2-ethyl-7-methyl-3H-imidazo[4,5-b]pyridine] has an IC50 [1] of 2.7 nM, an Emax [2] of 27% and an EC50 [2] of 60 nM.
CCc1nc2c(C)cc([C@H](O)C(C)C)nc2n1[C@H]1CCc2cc(-c3ccccc3-c3nnn[nH]3)ccc21 [Example 11, (R)-1-(3-((1S)-5-(2-(1H-tetrazol-5-yl)phenyl)-2,3-dihydro-1H-inden-1-yl)-2-ethyl-7-methyl-3H-imidazo[4,5-b]pyridin-5-yl)-2-methylpropan-1-ol] gave an IC50 [1] of 16 nM, an Emax [2] of 39% and an EC50 [2] of 440 nM.
In the case of CCc1nc2c(C)cc([C@@H](OC)C(C)C)nc2n1[C@H]1CCc2cc(-c3ccccc3-c3nnn[nH]3)ccc21 [Example 12, 3-((1S)-5-(2-(1H-tetrazol-5-yl)phenyl)-2,3-dihydro-1H-inden-1-yl)-2-ethyl-5-((S)-1-methoxy-2-methylpropyl)-7-methyl-3H-imidazo[4,5-b]pyridine], the IC50 [1] is reported as 0.7 nM, the Emax [2] is reported as 17% and the EC50 [2] is reported as 460 nM.
Compound CCc1nc2c(C)cc(CC(C)=O)nc2n1[C@H]1CCc2cc(-c3ccccc3-c3nnn[nH]3)ccc21 [Example 14, 1-(3-((1S)-5-(2-(1H-tetrazol-5-yl)phenyl)-2,3-dihydro-1H-inden-1-yl)-2-ethyl-7-methyl-3H-imidazo[4,5-b]pyridin-5-yl)propan-2-one] has an IC50 [1] of 5 nM, an Emax [2] of 21% and an EC50 [2] of 410 nM.
Compound CCc1nc2c(C)cc(C(C)(C)OC)nc2n1[C@H]1CCc2cc(-c3ccccc3-c3nnn[nH]3)ccc21 [Example 17, 3-((1S)-5-(2-(1H-tetrazol-5-yl)phenyl)-2,3-dihydro-1H-inden-1-yl)-2-ethyl-5-(2-methoxypropan-2-yl)-7-methyl-3H-imidazo[4,5-b]pyridine] has an IC50 [1] of 8.8 nM, an Emax [2] of 24% and an EC50 [2] of 65 nM.
Work on CCc1nc2c(C)cc(CC(O)CC(C)C)nc2n1[C@H]1CCc2cc(-c3ccccc3-c3nnn[nH]3)ccc21 (stereo partly drawn) [Example 18, 1-(3-((1S)-5-(2-(1H-tetrazol-5-yl)phenyl)-2,3-dihydro-1H-inden-1-yl)-2-ethyl-7-methyl-3H-imidazo[4,5-b]pyridin-5-yl)-4-methylpentan-2-ol] yielded an IC50 [1] of 5.4 nM, an Emax [2] of 29% and an EC50 [2] of 85 nM.
In the case of CCc1nc2c(C)cc(CC(O)C3CC3)nc2n1[C@H]1CCc2cc(-c3ccccc3-c3nnn[nH]3)ccc21 (stereo partly drawn) [Example 19, 2 (3-((1S)-5-(2-(1H-tetrazol-5-yl)phenyl)-2,3-dihydro-1H-inden-1-yl)-2-ethyl-7-methyl-3H-imidazo[4,5-b]pyridin-5-yl)-1-cyclopropylethanol], the IC50 [1] is reported as 7.2 nM, the Emax [2] is reported as 20% and the EC50 [2] is reported as 105 nM.
For C=CCC(O)Cc1cc(C)c2nc(CC)n([C@H]3CCc4cc(-c5ccccc5-c5nnn[nH]5)ccc43)c2n1 (stereo partly drawn) [Example 20, 1-(3-((1S)-5-(2-(1H-tetrazol-5-yl)phenyl)-2,3-dihydro-1H-inden-1-yl)-2-ethyl-7-methyl-3H-imidazo[4,5-b]pyridin-5-yl)pent-4-en-2-ol], the IC50 [1] was 5.7 nM, the Emax [2] was 31% and the EC50 [2] was 70 nM.
